Results on six molecules are retold here after PubChem BioAssay AID1259407 (Chemical Carcinogenesis Research Information System (CCRIS), 2018).

The data set concerns CCRIS mutagenicity, Ames/micronucleus/aberration tests. The experiment in a line: CCRIS mutagenicity studies.
[1] abbreviates: Test System: AMES SALMONELLA TYPHIMURIUM, Strain/Indicator: TA100, Metabolic Activation: NONE, Method: PREINCUBATION
The mark [2] stands for this setting: Test System: AMES SALMONELLA TYPHIMURIUM, Strain/Indicator: TA100, Metabolic Activation: NONE, Method: STANDARD PLATE.
Where [3] appears, read: Test System: AMES SALMONELLA TYPHIMURIUM, Strain/Indicator: TA1535, Metabolic Activation: NONE, Method: STANDARD PLATE.
Setting [4] is: Test System: MOUSE LYMPHOMA, Strain/Indicator: L5178Y (TK+/TK-), Metabolic Activation: NONE, Method: SUSPENSION/PLATE.
Setting [5] is: Test System: MOUSE LYMPHOMA, Strain/Indicator: L5178Y (TK+/TK-), Metabolic Activation: RAT, LIVER, S-9, AROCLOR 1254, Method: SUSPENSION/PLATE.

Active and inactive are the calls of the source. How the calls were made is not given here.

Take `CN(C)CCN(Cc1ccccc1)c1ccccc1`: the mutagenic call (Test System: AMES SALMONELLA TYPHIMURIUM, Strain/Indicator: TA98, Metabolic Activation: HAMSTER, LIVER, S-9, AROCLOR 1254 (10%), Method: PREINCUBATION) was “inactive; negative”; the mutagenic call (Test System: AMES SALMONELLA TYPHIMURIUM, Strain/Indicator: TA98, Metabolic Activation: NONE, Method: PREINCUBATION) was “inactive; negative”; the mutagenic call (Test System: AMES SALMONELLA TYPHIMURIUM, Strain/Indicator: TA98, Metabolic Activation: RAT, LIVER, S-9, AROCLOR 1254 (10%), Method: PREINCUBATION) was “inactive; negative”; the mutagenic call (Test System: AMES SALMONELLA TYPHIMURIUM, Strain/Indicator: TA100, Metabolic Activation: HAMSTER, LIVER, S-9, AROCLOR 1254 (10%), Method: PREINCUBATION) was “inactive; negative”; the mutagenic call under setting [1] is “inactive; negative”; the mutagenic call (Test System: AMES SALMONELLA TYPHIMURIUM, Strain/Indicator: TA100, Metabolic Activation: RAT, LIVER, S-9, AROCLOR 1254 (10%), Method: PREINCUBATION) was “inactive; negative”. Also, the mutagenic call runs as follows: (Test System: AMES SALMONELLA TYPHIMURIUM, Strain/Indicator: TA1535, Metabolic Activation: HAMSTER, LIVER, S-9, AROCLOR 1254 (10%), Method: PREINCUBATION) “inactive; negative”; (Test System: AMES SALMONELLA TYPHIMURIUM, Strain/Indicator: TA1535, Metabolic Activation: NONE, Method: PREINCUBATION) “inactive; negative”; (Test System: AMES SALMONELLA TYPHIMURIUM, Strain/Indicator: TA1535, Metabolic Activation: RAT, LIVER, S-9, AROCLOR 1254 (10%), Method: PREINCUBATION) “inactive; negative”; (Test System: AMES SALMONELLA TYPHIMURIUM, Strain/Indicator: TA1537, Metabolic Activation: HAMSTER, LIVER, S-9, AROCLOR 1254 (10%), Method: PREINCUBATION) “inactive; negative”; (Test System: AMES SALMONELLA TYPHIMURIUM, Strain/Indicator: TA1537, Metabolic Activation: NONE, Method: PREINCUBATION) “inactive; negative”; (Test System: AMES SALMONELLA TYPHIMURIUM, Strain/Indicator: TA1537, Metabolic Activation: RAT, LIVER, S-9, AROCLOR 1254 (10%), Method: PREINCUBATION) “inactive; negative”.
With `CN(C)c1ccc(N=Nc2ccc(N(C)C)cc2)cc1`, the mutagenic call (Test System: AMES SALMONELLA TYPHIMURIUM, Strain/Indicator: TA98, Metabolic Activation: RAT, LIVER, S-9, POLYCHLORINATED BIPHENYLS, Method: PREINCUBATION) is “inactive; negative” and the mutagenic call (Test System: AMES SALMONELLA TYPHIMURIUM, Strain/Indicator: TA100, Metabolic Activation: RAT, LIVER, S-9, POLYCHLORINATED BIPHENYLS, Method: PREINCUBATION) was “inactive; negative”.
As to `CCCCN(C[C@@H](CO)Cc1ccccc1)N=O`, the mutagenic call was “inactive; negative” under setting [1] and “active; positive” (Test System: AMES SALMONELLA TYPHIMURIUM, Strain/Indicator: TA100, Metabolic Activation: RAT, LIVER, S-9, PCB, Method: PREINCUBATION).
Take `C1=CC2OC2c2ncccc21` (centres undefined): the mutagenic call reads like this: under setting [2], “inactive; negative”; (Test System: AMES SALMONELLA TYPHIMURIUM, Strain/Indicator: TA100, Metabolic Activation: RAT, LIVER, S-9, AROCLOR 1254 (10% OR 20%), Method: STANDARD PLATE) “active; positive”.
Turning to `CN(C)C(=O)Cl`, the mutagenic call was “active; positive” under setting [2]; “active; positive” under setting [3]; “inactive; negative” (Test System: E. COLI, Strain/Indicator: WP2 UVRA, Metabolic Activation: HAMSTER, LIVER, S-9, AROCLOR 1254, Method: PREINCUBATION); “inactive; negative” (Test System: E. COLI, Strain/Indicator: WP2 UVRA, Metabolic Activation: HAMSTER, LIVER, S-9, AROCLOR 1254, Method: STANDARD PLATE); “inactive; negative” (Test System: E. COLI, Strain/Indicator: WP2 UVRA, Metabolic Activation: HAMSTER, LIVER, S-9, Method: STANDARD PLATE); “inactive; negative” (Test System: E. COLI, Strain/Indicator: WP2 UVRA, Metabolic Activation: MOUSE, LIVER, S-9, AROCLOR 1254, Method: PREINCUBATION). Moreover, the mutagenic call was “inactive; negative” (Test System: E. COLI, Strain/Indicator: WP2 UVRA, Metabolic Activation: MOUSE, LIVER, S-9, AROCLOR 1254, Method: STANDARD PLATE); “inactive; negative” (Test System: E. COLI, Strain/Indicator: WP2 UVRA, Metabolic Activation: MOUSE, LIVER, S-9, Method: PREINCUBATION); “inactive; negative” (Test System: E. COLI, Strain/Indicator: WP2 UVRA, Metabolic Activation: MOUSE, LIVER, S-9, Method: STANDARD PLATE); “inactive; negative” (Test System: E. COLI, Strain/Indicator: WP2 UVRA, Metabolic Activation: NONE, Method: STANDARD PLATE); “inactive; negative” (Test System: E. COLI, Strain/Indicator: WP2 UVRA, Metabolic Activation: RAT, LIVER, S-9, AROCLOR 1254, Method: STANDARD PLATE); “inactive; negative” (Test System: E. COLI, Strain/Indicator: WP2 UVRA, Metabolic Activation: RAT, LIVER, S-9, Method: STANDARD PLATE). The mutagenic call was “active; positive” under setting [4] and “active; positive” under setting [5].
On to `O=C1C=CC(=O)N1c1ccc(Cc2ccc(N3C(=O)C=CC3=O)cc2)cc1`, for which the mutagenic call is, setting by setting: (Test System: AMES SALMONELLA TYPHIMURIUM, Strain/Indicator: TA98, Metabolic Activation: HAMSTER, LIVER, S-9, AROCLOR 1254 (10%), Method: STANDARD PLATE) “inactive; negative”; (Test System: AMES SALMONELLA TYPHIMURIUM, Strain/Indicator: TA98, Metabolic Activation: NONE, Method: STANDARD PLATE) “inactive; negative”; (Test System: AMES SALMONELLA TYPHIMURIUM, Strain/Indicator: TA98, Metabolic Activation: RAT, LIVER, S-9, AROCLOR 1254 (10%), Method: STANDARD PLATE) “inactive; negative”; (Test System: AMES SALMONELLA TYPHIMURIUM, Strain/Indicator: TA100, Metabolic Activation: HAMSTER, LIVER, S-9, AROCLOR 1254 (10%), Method: STANDARD PLATE) “inactive; negative”; under setting [2], “inactive; negative”; (Test System: AMES SALMONELLA TYPHIMURIUM, Strain/Indicator: TA100, Metabolic Activation: RAT, LIVER, S-9, AROCLOR 1254 (10%), Method: STANDARD PLATE) “inactive; negative”. Besides, the mutagenic call by setting is: (Test System: AMES SALMONELLA TYPHIMURIUM, Strain/Indicator: TA1535, Metabolic Activation: HAMSTER, LIVER, S-9, AROCLOR 1254 (10%), Method: STANDARD PLATE) “inactive; negative”; under setting [3], “inactive; negative”; (Test System: AMES SALMONELLA TYPHIMURIUM, Strain/Indicator: TA1535, Metabolic Activation: RAT, LIVER, S-9, AROCLOR 1254 (10%), Method: STANDARD PLATE) “inactive; negative”; (Test System: AMES SALMONELLA TYPHIMURIUM, Strain/Indicator: TA1537, Metabolic Activation: HAMSTER, LIVER, S-9, AROCLOR 1254 (10%), Method: STANDARD PLATE) “inactive; negative”; (Test System: AMES SALMONELLA TYPHIMURIUM, Strain/Indicator: TA1537, Metabolic Activation: NONE, Method: STANDARD PLATE) “inactive; negative”; (Test System: AMES SALMONELLA TYPHIMURIUM, Strain/Indicator: TA1537, Metabolic Activation: RAT, LIVER, S-9, AROCLOR 1254 (10%), Method: STANDARD PLATE) “inactive; negative”. Moreover, the mutagenic call was “inactive; negative” (Test System: AMES SALMONELLA TYPHIMURIUM, Strain/Indicator: TA1538, Metabolic Activation: HAMSTER, LIVER, S-9, AROCLOR 1254 (10%), Method: STANDARD PLATE); “inactive; negative” (Test System: AMES SALMONELLA TYPHIMURIUM, Strain/Indicator: TA1538, Metabolic Activation: NONE, Method: STANDARD PLATE); “inactive; negative” (Test System: AMES SALMONELLA TYPHIMURIUM, Strain/Indicator: TA1538, Metabolic Activation: RAT, LIVER, S-9, AROCLOR 1254 (10%), Method: STANDARD PLATE); “inactive; negative. reevaluation of results: negative” under setting [4]; “active; positive. reevaluation of results: equivocal” under setting [5].
